Series [1] deals with YAP-TEAD transcription complex. The experiment in a line: YAP-TEAD reporter gene assay (dual luciferase, stably transfected 293T cells). Conditions: Homo sapiens, HEK-293T. In kind it is cell-based. (In general: A reporter such as luciferase makes a cellular process visible.)
Series [2] in a line: Pharmacokinetic test in mice (low dose). It counts as in vivo, Balb/c mice. Conditions: mouse, mice; for AUC(0-t): read-out: AUClast; for clearance: read-out: Cl (converted); for half-life: read-out: T1/2 (converted); for bioavailability: PO 10 mg/kg vs IV 2 mg/kg, read-out: F%; for Cmax: read-out: Cmax.
Setting [3] is: 293T reporter cells, 24 h of drug treatment, read-out: IC50.

Where two headings read alike, the source gives them in different places.

In series [1] (24 h), `CP(C)(=O)c1ccc2c(c1)c1ccccc1n2-c1ccc(C(F)(F)F)cc1` [Example 1] registered an IC50 of 39.7 nM. Moreover, in series [2] (in vivo, IV 2 mg/kg), the MRT is 6.1 h, the AUC(0-t) is 30.7 µM·h, the clearance is 2.83 mL/min/kg and the half-life is 4.2 h. In series [2] (in vivo, PO 10 mg/kg), the MRT worked out at 6.5 h, the AUC(0-t) stood at 182 µM·h, the peak concentration (Cmax) is 12.9 µM and the half-life was 3.9 h. For the same compound, the bioavailability in series [2] (in vivo) is 118%.

Regarding `CP(C)(=O)c1ccc2c(c1)c1cccnc1n2-c1ccc(C(F)(F)F)cc1` [Example 5], in series [1] (setting [3]), the concentration for half-maximal inhibition (IC50) is 57.1 nM. Moreover, in series [2] (plasma, IV 2 mg/kg), the mean residence time MRT is 2.5 h, the AUC(0-t) was found to be 9.37 µM·h, the clearance is 8.33 mL/min/kg and the half-life is 1.8 h. Besides, in series [2] (plasma, PO 10 mg/kg), the MRT was found to be 5.3 h, the AUC(0-t) turned out to be 155 µM·h, the Cmax stood at 15.5 µM and the half-life was 2.6 h. Besides, the bioavailability in series [2] (plasma) is 318%.

In turn, `CP(C)(=O)c1ccc2c(Oc3ccc(C(F)(F)F)cc3)cccc2c1` [Example 7] displayed an IC50 in series [1] (24 h) of 4.09 nM. Further, in series [2] (in vivo, IV 2 mg/kg), the mean residence time MRT worked out at 171 h, the AUC(0-t) worked out at 50.7 µM·h, the clearance was 0.25 mL/min/kg and the half-life was 120 h. Also, in series [2] (in vivo, PO 10 mg/kg), the MRT turned out to be 211 h, the AUC(0-t) was found to be 267 µM·h, the peak concentration (Cmax) is 12.7 µM and the half-life is 146 h. Also, the bioavailability in series [2] (in vivo) amounted to 106%.

`Cn1cnc(-c2cc(P(C)(C)=O)cnc2Nc2ccc(C(F)(F)F)cc2)c1` [Example 8] showed an IC50 in series [1] (24 h) of 42.4 nM. Besides, in series [2] (in vivo, IV 2 mg/kg), the mean residence time MRT turned out to be 6.4 h, the AUC(0-t) worked out at 7.94 µM·h, the clearance was 10 mL/min/kg and the half-life was 5.6 h. Besides, in series [2] (in vivo, PO 10 mg/kg), the MRT is 47.2 h, the AUC(0-t) came to 119 µM·h, the peak concentration (Cmax) worked out at 14.6 µM and the half-life was 34.2 h. Moreover, the bioavailability in series [2] (in vivo) was determined as 300%.

Regarding `CP(C)(=O)c1ccc(Nc2ccc(C(F)(F)F)cc2)c(-c2ccccn2)c1` [Example 10], the IC50 in series [1] (setting [3]) came out at 100 nM. In series [2] (plasma, IV 2 mg/kg), the MRT was 75 h, the AUC(0-t) worked out at 59.3 µM·h, the clearance was 0.4 mL/min/kg and the half-life is 52 h. Besides, in series [2] (plasma, PO 10 mg/kg), the MRT came to 75.6 h, the AUC(0-t) came out at 290 µM·h, the Cmax was 14.6 µM and the half-life is 28.2 h. In series [2] (plasma), the bioavailability amounted to 98%.

`CP(C)(=O)c1ccc(Nc2ccc(C(F)(F)F)cc2)c(-c2ncccn2)c1` [Example 12]: the half-inhibitory concentration (IC50) in series [1] (setting [3]) worked out at 92.1 nM. Further, in series [2] (plasma, IV 2 mg/kg), the mean residence time MRT came out at 23.4 h, the AUC(0-t) stood at 58.8 µM·h, the clearance was 1 mL/min/kg and the half-life was 17.2 h. In series [2] (plasma, PO 10 mg/kg), the mean residence time (MRT) was 34.5 h, the AUC(0-t) turned out to be 295 µM·h, the highest concentration (Cmax) was determined as 16.1 µM and the half-life was 25.6 h. Also, the bioavailability in series [2] (plasma) stood at 100%.

Turning to `Cn1cnc(-c2cc(P(C)(C)=O)ccc2Nc2ccc(C(F)(F)F)cc2)c1` [Example 14], the IC50 in series [1] (24 h) turned out to be 20.2 nM. Also, in series [2] (in vivo, IV 2 mg/kg), the MRT was 26.2 h, the AUC(0-t) is 21.2 µM·h, the clearance is 2.33 mL/min/kg and the half-life was 19 h. Besides, in series [2] (in vivo, PO 10 mg/kg), the mean residence time (MRT) is 17.8 h, the AUC(0-t) was determined as 112 µM·h, the highest concentration (Cmax) worked out at 8.08 µM and the half-life was 12.3 h. For the same compound, the bioavailability in series [2] (in vivo) came out at 106%.

In series [1] (24 h), `CP(C)(=O)c1cnc(Nc2ccc(C(F)(F)F)cc2)c(-c2cn3c(n2)CCC3)c1` [Example 22] registered a half-inhibitory concentration (IC50) of 13.6 nM. In series [2] (in vivo, IV 2 mg/kg), the MRT is 10.8 h, the AUC(0-t) was determined as 16.4 µM·h, the clearance is 4.17 mL/min/kg and the half-life was 8.9 h. Besides, in series [2] (in vivo, PO 10 mg/kg), the MRT was 9.9 h, the AUC(0-t) was determined as 96.4 µM·h, the Cmax turned out to be 7.07 µM and the half-life was 7.6 h. Also, in series [2] (in vivo), the bioavailability is 114%.

Consider `Cc1ccc(Oc2ccc(C(F)(F)F)cc2)c2ccc(P(C)(C)=O)cc12` [Example 24], for which, in series [1] (24 h), the IC50 is 135 nM. For the same compound, in series [2] (in vivo, IV 2 mg/kg), the AUC(0-t) was found to be 22.1 µM·h, the clearance was 3.3 mL/min/kg and the half-life is 11 h. Also, the bioavailability in series [2] (in vivo) was 120%. In series [2] (in vivo, PO 10 mg/kg), the AUC(0-t) was 133 µM·h, the maximum concentration (Cmax) was determined as 7.82 µM and the half-life was 16.2 h.

For orientation: IC50 means the concentration that inhibits the measured activity by half. Usually MRT stands for a mean duration of stay, worked out from the concentration-time curve. What is called Cmax is the peak of the concentration-time curve.

The record behind these values is EP4596561A1, “PHOSPHORUS-CONTAINING COMPOUND, PHARMACEUTICAL COMPOSITION AND USE THEREOF” (Suzhou Genhouse Bio Co., Ltd., priority 2022, dated 2024).
